Experimental data taken from patent US9156840B2, “D2 antagonists, methods of synthesis and methods of use” (ALTOS THERAPEUTICS, LLC, priority 2010, dated 2015).
Counter-ions that a name gives are not always drawn.

molecular target: T1, human D2 receptor (Homo sapiens, UniProt P14416); assay: D2 receptor radioligand binding assay (membranes of HEK-293 cells expressing human D2 receptor); conditions: radioligand displacement, HEK293 membranes, 37° C. for 120 minutes; read-out: Affinity Score (IC50 values for D2 on a scale of 1 through 5)
T1 construct: expressed in transfected cells; cDNA from Origene clones TC308892 and SC123573
Summary of the method: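 Membranes from HEK-293 cells stably expressing human D2S or D2L, 10 μg protein per well. Compounds incubated with radioligand (KD 0.09 nM) in Tris buffer pH 7.4 with 0.025% BSA, 120 minutes at 37° C. Filtration and scintillation counting; Ki by Cheng–Prusoff.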

T1 sequence (P14416 whole entry): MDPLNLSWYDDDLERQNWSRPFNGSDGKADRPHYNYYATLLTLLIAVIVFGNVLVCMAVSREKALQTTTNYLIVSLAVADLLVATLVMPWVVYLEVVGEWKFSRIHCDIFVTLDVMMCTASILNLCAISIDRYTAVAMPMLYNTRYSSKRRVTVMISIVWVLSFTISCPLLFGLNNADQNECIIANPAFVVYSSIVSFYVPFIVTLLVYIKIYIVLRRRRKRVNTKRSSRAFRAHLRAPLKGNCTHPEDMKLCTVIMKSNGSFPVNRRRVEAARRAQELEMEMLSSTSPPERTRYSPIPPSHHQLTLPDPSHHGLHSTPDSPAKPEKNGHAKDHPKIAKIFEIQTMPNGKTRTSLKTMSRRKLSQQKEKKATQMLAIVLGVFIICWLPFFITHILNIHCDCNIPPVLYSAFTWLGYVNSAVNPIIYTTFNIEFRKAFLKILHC

| Structure (SMILES) | IC50 [nM] |
| --- | --- |
| COC(=O)c1cccc(N2CN(c3ccccc3)C3(CCN(CCCC(=O)c4ccccc4)CC3)C2=O)c1 [Compound 179, Methyl 3-(4-oxo-8-(4-oxo-4-phenylbutyl)-1-phenyl-1,3,8-triazaspiro[4.5]decan-3-yl)benzoate] | < 10 |
| O=C(CCCN1CCC2(CC1)C(=O)N(c1ccccc1C(=O)O)CN2c1ccccc1)c1ccccc1 [Compound 180, 2-(4-oxo-8-(4-oxo-4-phenylbutyl)-1-phenyl-1,3,8-triazaspiro[4.5]decan-3-yl)benzoic acid] | < 10 |
| O=C(O)c1ccc(N2CN(c3ccccc3)C3(CCN(CCCC(=O)c4ccccc4)CC3)C2=O)cc1 [Compound 182, 4-(4-Cho-8-(4-oxo-4-phenylbutyl)-1-phenyl-1,3,8-triazaspiro[4.5]decan-3-yl)benzoic acid, hydrochloride] | < 10 |
| CS(=O)(=O)Nc1ccc(CN2CN(c3ccccc3)C3(CCN(CCCC(=O)c4ccccc4)CC3)C2=O)cc1 [Compound 186, N-(4-((4-oxo-8-(4-oxo-4-phenylbutyl)-1-phenyl-1,3,8-triazaspiro[4.5]decan-3-yl)methyl)phenyl)methanesulfonamide] | < 10 |
| CS(=O)(=O)Nc1cccc(N2CN(c3ccccc3)C3(CCN(CCCC(=O)c4ccc(F)cc4)CC3)C2=O)c1 [Compound 211] | < 10 |
| CS(=O)(=O)Nc1cccc(CN2CN(c3ccccc3)C3(CCN(CCCN4C(=O)C5(CC5)c5ccccc54)CC3)C2=O)c1 [Compound 212, N-(3-((4-Oxo-8-(3-(2′-oxospiro[cyclopropane-1,3′-indoline]-1′-yl)propyl)-1-phenyl-1,3,8-triazaspiro[4.5]decan-3-yl)methyl)phenyl)methanesulfonamide] | < 10 |
| CS(=O)(=O)Nc1cccc(CN2CN(c3ccccc3)C3(CCN(CCCN4C(=O)Cc5ccccc54)CC3)C2=O)c1 [Compound 213, N-(3-((4-Cho-8-(3-(2-oxoindolin-1-yl)propyl)-1-phenyl-1,3,8-triazaspiro[4.5]decan-3-yl)methyl)phenyl)methanesulfonamide] | < 10 |
| CS(=O)(=O)Nc1ccc(N2CN(c3ccccc3)C3(CCN(CCCC(=O)c4ccc(F)cc4)CC3)C2=O)cc1 [Compound 214, N-(4-(8-(4-(4-Fluorophenyl)-4-oxobutyl)-4-oxo-1-phenyl-1,3,8-triazaspiro[4.5]decan-3-yl)phenyl)methanesulfonamide] | < 10 |
| CS(=O)(=O)Nc1ccc(N2CN(c3ccccc3)C3(CCN(CCCN4C(=O)Cc5ccccc54)CC3)C2=O)cc1 [Compound 215, N-(4-(4-oxo-8-(3-(2-oxoindolin-1-yl)propyl)-1-phenyl-1,3,8-triazaspiro[4.5]decan-3-yl)phenyl)methanesulfonamide] | < 10 |
| CS(=O)(=O)Nc1ccc(N2CN(c3ccccc3)C3(CCN(CCCN4C(=O)C5(CC5)c5ccccc54)CC3)C2=O)cc1 [Compound 216, N-(4-(4-Oxo-8-(3-(2′-oxospiro[cyclopropane-1,3′-indoline]-1′-yl)propyl)-1-phenyl-1,3,8-triazaspiro[4.5]decan-3-yl)phenyl)methanesulfonamide] | < 10 |
| CC1(C)C(=O)N(CCCN2CCC3(CC2)C(=O)N(c2ccc(NS(C)(=O)=O)cc2)CN3c2ccccc2)c2ccccc21 [Compound 217, N-(4-(8-(3-(3,3-Dimethyl-2-oxoindolin-1-yl)propyl)-4-oxo-1-phenyl-1,3,8-triazaspiro[4.5]decan-3-yl)phenyl)methanesulfonamide] | < 10 |
| O=C(CCCN1CCC2(CC1)C(=O)N(Cc1ccccc1C(=O)O)CN2C1CCCCC1)c1ccccc1 [Compound 218, 2-((1-Cyclohexyl-4-oxo-8-(4-oxo-4-phenylbutyl)-1,3,8-triazaspiro[4.5]decan-3-yl)methyl)benzoic acid, hydrochloride] | < 10 |
